According to US11214803B2, “Modulators of YAP1 expression” (Ionis Pharmaceuticals, Inc., priority 2019, dated 2022):

What was measured:
[1] = tested on: Yap1 mRNA; assay: Inhibition of human Yap1 mRNA in epidermoid carcinoma A-431 xenograft tumors (Example 27); assay type: in vivo; conditions: A-431 xenografts in NCr-Foxn1nu mice, 6-8 hours post final dose, relative to PBS
Description: An epidermoid carcinoma A-431 xenograft tumor model was used to evaluate activity of modified oligonucleotides targeted to human Yap1. Five million A-431 cells in 30% matrigel were implanted subcutaneously into the flanks of female NCr-Foxn1nu mice (from Taconic) at 4-6 weeks of age. When tumors reached an average volume of 40 mm^3, approximately two weeks post-implantation, groups of four mice each were administered at either 25 mg/kg or 50 mg/kg daily with modified oligonucleotides for […] (5 doses). Tumors were collected 6-8 hours post final dose and tested for Yap1 mRNA knockdown by RT-qPCR. Yap1 mRNA levels were measured as previously described using the Human Yap1 primer-probe set RTS4814. Yap1 mRNA levels were normalized to actin-beta content, as measured by primer probe set RTS5002. Results are presented in the tables below as percent control of the amount of Yap1 mRNA relative to PBS treated animals (% control).

[2] = tested on: Yap1 mRNA; assay: Dose-dependent inhibition of human Yap1 in SNU-449 cells (Example 9, RTS36584); assay type: cell-based; conditions: free uptake; for % UTC (Yap1 mRNA): approximately 48 hours; for IC50: linear regression on a log/linear plot
How it was run: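 SNU-449 cells (10,000/well) took up modified oligonucleotides by free uptake at a range of doses for about 48 h. Yap1 mRNA was quantified with primer-probe set RTS36584, normalised to RIBOGREEN total RNA and expressed as % untreated control; IC50 from linear regression on log/linear plot.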

[3] = Tolerability in Sprague-Dawley rats, plasma chemistry markers (Example 22); assay type: in vivo; conditions: male Sprague-Dawley rats, 50 mg/kg s.c. weekly for 6 weeks (7 doses), 48 hours after last dose
Description: Sprague-Dawley rats are a multipurpose model used for safety and efficacy evaluations. The rats were treated with Ionis modified oligonucleotides from the studies described in the Examples above and evaluated for changes in the levels of various plasma chemistry markers.

[4] = Cynomolgus monkey tolerability, hematology (Example 34); assay type: in vivo, cynomolgus monkeys; conditions: for BAS / EOS / HCT / HGB / LUC / LYM / MCH / MCHC / MCV / MON / NEU / PLT / RBC / RCDW / Retic / WBC: cynomolgus monkey, in vivo, sc, 35 mg/kg; for MPV: cynomolgus monkeys, 35 mg/kg subcutaneously, day 44
How it was run: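 On day 44, blood from oligonucleotide-treated cynomolgus monkeys was collected into K2-EDTA. An automated analyzer measured red cell indices, reticulocytes, platelets and MPV, and total and differential white cell counts.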

[5] = Cynomolgus monkey tolerability, pro-inflammatory proteins analysis, Complement C3 and CRP (Example 34); assay type: in vivo; conditions: cynomolgus monkeys, 35 mg/kg subcutaneously; for CRP: day 44
How it was run: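 Inflammatory effects of oligonucleotides in cynomolgus monkeys were assessed using blood samples taken after an overnight fast. About 0.8 mL of blood per animal went into tubes without anticoagulant so serum could be separated. Complement C3 was measured on a Toshiba 120 FR NEO chemistry analyzer. C-Reactive Protein was measured alongside the liver-function clinical chemistry parameters.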

[6] = Cynomolgus monkey tolerability, kidney and liver function markers (Example 34); conditions: cynomolgus monkeys, 35 mg/kg subcutaneously, day 44
[7] = tested on: Yap1 mRNA; assay: Yap1 mRNA in SCC25 cells, RNA analysis (Example 25); assay type: cell-based, human; conditions: free uptake, 48 hours, RTS4814, normalized to actin-beta
Description: Modified oligonucleotides described in the studies above were tested at various doses in squamous cell carcinoma cell SCC25. A control oligonucleotide 792169 (a 3-10-3 cET gapmer with a full phosphorothioate backbone, […], designated herein as SEQ ID No.: 2940; is not complementary to any known human gene) was also tested.
Cultured SCC25 cells at a density of 5,000 cells per well were treated using free uptake with modified oligonucleotides diluted to concentrations described in the tables below. After approximately 48 hours, Yap1 mRNA levels were measured as previously described using the Human Yap1 primer-probe set RTS4814. Yap1 mRNA levels were normalized to actin-beta content, as measured by primer probe set RTS5002 (forward sequence […], designated herein as SEQ ID NO.: 20; reverse sequence […], designated herein as SEQ ID NO.: 21; probe sequence […], designated herein as SEQ ID NO.: 22). Results are presented in the tables below as percent control of the amount of Yap1 mRNA relative to untreated control cells (% UTC).

[8] = rat, in vivo, sc, 50 mg/kg
Description: Male Sprague-Dawley rats were maintained on a 12-hour light/dark cycle and fed ad libitum with Purina normal rat chow. Groups of 4 Sprague-Dawley rats each were weekly injected subcutaneously with 50 mg/kg of Ionis oligonucleotide for 6 weeks (total 7 doses). Forty-eight hours after the last dose, the rats were euthanized; and organs, urine and plasma were harvested for further analysis.
To evaluate the effect of Ionis oligonucleotides on kidney function, urinary levels of total protein and creatinine were measured using an automated clinical chemistry analyzer (Hitachi Olympus AU400c, Melville, N.Y.).

## 1198872 (TGTATGTCAGAAGAGT; chemically modified gapmer, further chemistry not given here) [compound 1198872]
[1]; 25 mpk daily (5 doses)
  Yap1 mRNA in tumors, % control: 34 % control
[1]; 50 mpk daily (5 doses)
  Yap1 mRNA in tumors, % control: 26 % control
[2]; 31.3 nM
  % UTC (Yap1 mRNA): 49 % UTC
[2]; 125.0 nM
  % UTC (Yap1 mRNA): 21 % UTC
[2]; 500.0 nM
  % UTC (Yap1 mRNA): 6 % UTC
[2]; 2000.00 nM
  % UTC (Yap1 mRNA): 1 % UTC
[2]
  IC50: < 30 nM
[3]
  ALT: 109 U/L
  AST: 134 U/L
  BUN: 18 mg/dL
  TBIL: 0.20 mg/dL
[4]
  BAS: 0.3%
  EOS: 0.6%
  HCT: 44%
  HGB: 13 g/dL
  LUC: 0.5%
  LYM: 32%
  MCH: 23 pg
  MCHC: 30 g/dL
  MCV: 78 fL
  MON: 2.2%
  NEU: 64%
  PLT: 400 10^3/μL
  RBC: 5.7e+06 µL⁻¹
  RCDW: 12%
  Retic: 1.2%
  WBC: 10400 µL⁻¹
  MPV: 7.1 fL
[5]; Day 42 (pre-dose)
  Complement C3: 103 mg/dL
[5]; day 42 (24 hr post-dose)
  Complement C3: 96 mg/dL
[5]
  CRP: 1.1 mg/L
[6]
  ALB: 4.0 g/dL
  ALP: 1098 IU/L
  ALT: 48 IU/L
  AST: 94 IU/L
  BUN: 27 mg/dL
  CREA: 0.9 mg/dL
  GGT: 79 IU/L
  GLO: 3.1 g/dL
  GLU: 80 mg/dL
  HDL: 114 mg/dL
  LDL: 60 mg/dL
  TBIL: 0.3 mg/dL
  TG: 19 mg/dL
  TP: 7.1 g/dL
[7]; 0.04 μM
  Yap1 mRNA, % UTC: 54 % UTC
[7]; 0.2 μM
  Yap1 mRNA, % UTC: 22 % UTC
[7]; 1 μM
  Yap1 mRNA, % UTC: 9 % UTC
[7]; 5 μM
  Yap1 mRNA, % UTC: 7 % UTC
[8]
  URINE P/C ratio (total protein to creatinine ratio): 8

## 1197270 (TTAAAGTGTATGTCAG; cEt gapmer with 2'-OMe nucleoside, phosphorothioate, further chemistry not given here) [compound 1197270]
[1]; 25 mpk daily (5 doses)
  Yap1 mRNA in tumors, % control: 57 % control
[1]; 50 mpk daily (5 doses)
  Yap1 mRNA in tumors, % control: 38 % control
[2]; 31.3 nM
  % UTC (Yap1 mRNA): 43 % UTC
[2]; 125.0 nM
  % UTC (Yap1 mRNA): 23 % UTC
[2]; 500.0 nM
  % UTC (Yap1 mRNA): 8 % UTC
[2]; 2000.00 nM
  % UTC (Yap1 mRNA): 2 % UTC
[2]
  IC50: < 30 nM
[3]
  ALT: 84 U/L
  AST: 120 U/L
  BUN: 24 mg/dL
  TBIL: 0.19 mg/dL
[4]
  BAS: 0.4%
  EOS: 2.7%
  HCT: 44%
  HGB: 12 g/dL
  LUC: 1.2%
  LYM: 54%
  MCH: 22 pg
  MCHC: 28 g/dL
  MCV: 79 fL
  MON: 3.5%
  NEU: 38%
  PLT: 452 10^3/μL
  RBC: 5.6e+06 µL⁻¹
  RCDW: 12%
  Retic: 1.1%
  WBC: 10600 µL⁻¹
  MPV: 7.1 fL
[5]; Day 42 (pre-dose)
  Complement C3: 103 mg/dL
[5]; day 42 (24 hr post-dose)
  Complement C3: 86 mg/dL
[5]
  CRP: 9.8 mg/L
[6]
  ALB: 3.7 g/dL
  ALP: 1215 IU/L
  ALT: 84 IU/L
  AST: 78 IU/L
  BUN: 27 mg/dL
  CREA: 0.9 mg/dL
  GGT: 75 IU/L
  GLO: 3.1 g/dL
  GLU: 115 mg/dL
  HDL: 102 mg/dL
  LDL: 48 mg/dL
  TBIL: 0.2 mg/dL
  TG: 31 mg/dL
  TP: 6.8 g/dL
[7]; 0.04 μM
  Yap1 mRNA, % UTC: 48 % UTC
[7]; 0.2 μM
  Yap1 mRNA, % UTC: 24 % UTC
[7]; 1 μM
  Yap1 mRNA, % UTC: 12 % UTC
[7]; 5 μM
  Yap1 mRNA, % UTC: 7 % UTC
[8]
  URINE P/C ratio (total protein to creatinine ratio): 14
